In ChEMBL document CHEMBL1201862, “PubChem BioAssay data set” (2004):
The source made the active and inactive calls.

Experiments:
Aminopeptidase N = target: T1, Aminopeptidase N (Plasmodium falciparum FcB1/Columbia, UniProt O96935); test: P. falciparum M1AAP inhibitors, biochemical, fluorogenic H-Leu-NHMec substrate, 1536-well (AID 1445); parameters: species or system Plasmodium falciparum 3D7, 3D7
T1 sequence (O96935 whole entry): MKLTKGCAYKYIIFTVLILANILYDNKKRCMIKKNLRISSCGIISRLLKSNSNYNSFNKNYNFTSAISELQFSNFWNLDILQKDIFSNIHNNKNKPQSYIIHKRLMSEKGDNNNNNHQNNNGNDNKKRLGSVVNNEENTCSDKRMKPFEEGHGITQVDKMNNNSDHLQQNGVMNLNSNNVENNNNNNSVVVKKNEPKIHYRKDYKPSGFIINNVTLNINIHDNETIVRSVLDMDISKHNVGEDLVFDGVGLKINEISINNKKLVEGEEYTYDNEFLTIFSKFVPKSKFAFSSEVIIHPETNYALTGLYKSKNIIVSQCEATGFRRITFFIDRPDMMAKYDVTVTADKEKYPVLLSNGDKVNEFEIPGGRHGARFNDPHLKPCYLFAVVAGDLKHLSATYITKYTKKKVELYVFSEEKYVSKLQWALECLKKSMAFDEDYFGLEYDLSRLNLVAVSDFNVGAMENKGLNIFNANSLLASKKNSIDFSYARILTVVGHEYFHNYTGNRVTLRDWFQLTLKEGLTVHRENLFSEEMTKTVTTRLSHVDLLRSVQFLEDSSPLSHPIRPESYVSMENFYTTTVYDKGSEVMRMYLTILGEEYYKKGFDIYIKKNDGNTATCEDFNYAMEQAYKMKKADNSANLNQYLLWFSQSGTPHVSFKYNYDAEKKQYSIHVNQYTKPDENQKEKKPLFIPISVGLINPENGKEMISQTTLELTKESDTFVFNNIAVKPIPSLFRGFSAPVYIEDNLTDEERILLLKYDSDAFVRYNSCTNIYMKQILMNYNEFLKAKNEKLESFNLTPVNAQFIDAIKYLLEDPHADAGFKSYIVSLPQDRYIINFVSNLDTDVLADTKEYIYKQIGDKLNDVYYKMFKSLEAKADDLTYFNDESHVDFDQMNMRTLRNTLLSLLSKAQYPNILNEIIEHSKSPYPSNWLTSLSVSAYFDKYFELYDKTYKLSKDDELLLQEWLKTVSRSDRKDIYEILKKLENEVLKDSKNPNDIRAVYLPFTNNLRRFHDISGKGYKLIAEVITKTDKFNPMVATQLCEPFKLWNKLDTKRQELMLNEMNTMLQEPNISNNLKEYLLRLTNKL

[1] = target: T2, Short transient receptor potential channel 4 (Mus musculus, UniProt Q9QUQ5); test: mouse TRPC4 channel inhibitors, dose response, cell-based, HEK293 TRPC4/mu-opioid, Fluo-4 calcium (AID 434942); type: functional;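 also: potency of inhibitors blocking the TRPC4 calcium response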
T2 sequence (Q9QUQ5 whole entry): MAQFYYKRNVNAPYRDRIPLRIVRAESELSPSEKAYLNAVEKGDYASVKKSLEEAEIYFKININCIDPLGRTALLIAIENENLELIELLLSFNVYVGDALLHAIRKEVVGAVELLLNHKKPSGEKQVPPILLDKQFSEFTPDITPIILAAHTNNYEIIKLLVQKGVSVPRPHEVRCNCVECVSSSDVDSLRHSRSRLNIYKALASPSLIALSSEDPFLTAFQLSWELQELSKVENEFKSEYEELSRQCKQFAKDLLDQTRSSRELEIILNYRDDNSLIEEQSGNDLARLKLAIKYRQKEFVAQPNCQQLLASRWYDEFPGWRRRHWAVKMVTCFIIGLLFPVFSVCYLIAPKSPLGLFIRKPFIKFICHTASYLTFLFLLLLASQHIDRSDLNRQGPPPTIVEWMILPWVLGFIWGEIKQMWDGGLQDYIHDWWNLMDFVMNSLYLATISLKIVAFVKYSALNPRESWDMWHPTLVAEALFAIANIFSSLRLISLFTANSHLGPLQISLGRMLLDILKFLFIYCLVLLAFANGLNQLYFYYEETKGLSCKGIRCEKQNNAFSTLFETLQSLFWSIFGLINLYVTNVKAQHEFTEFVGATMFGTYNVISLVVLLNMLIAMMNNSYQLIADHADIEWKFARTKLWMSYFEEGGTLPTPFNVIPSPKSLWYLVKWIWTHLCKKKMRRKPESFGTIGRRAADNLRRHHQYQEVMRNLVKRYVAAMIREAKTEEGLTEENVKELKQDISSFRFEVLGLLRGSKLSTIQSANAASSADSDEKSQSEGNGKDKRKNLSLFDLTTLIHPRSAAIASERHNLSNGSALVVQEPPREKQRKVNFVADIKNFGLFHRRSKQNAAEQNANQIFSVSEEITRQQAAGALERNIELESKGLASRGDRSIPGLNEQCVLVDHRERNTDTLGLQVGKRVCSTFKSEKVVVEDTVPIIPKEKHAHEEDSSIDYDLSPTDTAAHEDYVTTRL

[2] = target: T2, Short transient receptor potential channel 4; test: mouse TRPC4 channel activators, dose response, cell-based, HEK293 TRPC4/mu-opioid, Fluo-4 calcium (AID 434937); type: functional
[3] = NIH-3T3 fibroblast cytotoxicity, dose response, cytotoxicity control, cell-based, fluorescence, Alamar Blue, secondary assay (AID 2327); type: functional;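 also: NIH-3T3 mouse fibroblasts cultured with fluconazole at 8 µg/mL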
[4] = HEp-2 cell cytotoxicity, dose response, cytotoxicity control for RSV inhibitor project, HTS (AID 2410); type: functional; conditions: human respiratory syncytial virus
[5] = tested on: Streptococcus sp. 'group A'; test: growth inhibition of control SK(-) GAS strain, dose response, counter-screen for streptokinase expression inhibitor project, luminescence, kanamycin, BacTiterGlo, confirmation (AID 1900); type: functional, organism-based
cells [6] = type: functional, cell-based
[7] = C. albicans growth with fluconazole, confirmation, fluorescence, retest (AID 2467); type: functional, cell-based
cells [8] = type: functional, cell-based; remark: listed apart in the source
Streptococcus = test: Group A Streptococcus viability loss, dose response, counter-screen for streptokinase expression inhibitor project, luminescence, BacTiterGlo (AID 1915); type: functional, organism-based;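 also: potency for reduction of bacterial viability or growth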
[9] = target: T3, DNA repair protein RAD52 homolog (Homo sapiens, UniProt P43351); type: functional, biochemical
T3 sequence (P43351 whole entry): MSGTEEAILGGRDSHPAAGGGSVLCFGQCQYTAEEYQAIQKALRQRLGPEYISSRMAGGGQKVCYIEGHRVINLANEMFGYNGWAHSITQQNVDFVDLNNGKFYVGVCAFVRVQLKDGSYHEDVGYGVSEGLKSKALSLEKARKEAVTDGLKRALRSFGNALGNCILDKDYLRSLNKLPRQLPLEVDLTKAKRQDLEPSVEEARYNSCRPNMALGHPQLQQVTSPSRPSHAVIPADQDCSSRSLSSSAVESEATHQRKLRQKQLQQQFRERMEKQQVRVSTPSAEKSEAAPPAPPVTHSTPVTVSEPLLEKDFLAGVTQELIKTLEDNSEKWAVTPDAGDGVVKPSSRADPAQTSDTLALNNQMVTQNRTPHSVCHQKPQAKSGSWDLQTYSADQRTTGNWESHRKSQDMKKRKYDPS

[10] = A Cell Based Secondary Assay To Explore Cytotoxicity of Compounds that Sensitize Mycobacterium Tuberculosis to Beta-Lactam Antibiotics.; type: functional
Protein skinhead-1 = target: T4, Protein skinhead-1 (Caenorhabditis elegans, UniProt P34707); type: functional
T4 sequence (P34707 whole entry): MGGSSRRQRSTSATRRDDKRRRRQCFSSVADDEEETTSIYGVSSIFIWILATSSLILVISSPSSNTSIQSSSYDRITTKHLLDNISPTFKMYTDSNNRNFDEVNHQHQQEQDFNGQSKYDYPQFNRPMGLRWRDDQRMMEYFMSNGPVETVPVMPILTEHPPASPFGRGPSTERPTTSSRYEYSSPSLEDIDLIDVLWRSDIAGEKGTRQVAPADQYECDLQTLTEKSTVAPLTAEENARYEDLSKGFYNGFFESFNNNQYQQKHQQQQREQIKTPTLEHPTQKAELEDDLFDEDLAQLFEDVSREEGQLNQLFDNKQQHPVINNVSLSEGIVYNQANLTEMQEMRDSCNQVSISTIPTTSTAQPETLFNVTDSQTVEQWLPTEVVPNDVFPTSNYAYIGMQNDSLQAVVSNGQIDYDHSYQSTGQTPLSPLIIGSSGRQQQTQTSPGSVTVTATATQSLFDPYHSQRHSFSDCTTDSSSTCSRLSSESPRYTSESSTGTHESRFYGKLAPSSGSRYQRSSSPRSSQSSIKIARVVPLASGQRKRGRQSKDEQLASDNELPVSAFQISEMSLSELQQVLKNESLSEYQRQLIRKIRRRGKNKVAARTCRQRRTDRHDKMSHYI

[11] = target: T5, Replicative DNA helicase DnaB (Mycobacterium tuberculosis, UniProt P9WMR3); test: DnaB intein splicing inhibitors, dose response, biochemical, cell-free fluorescence (AID 449749); type: functional
T5 sequence (P9WMR3 whole entry): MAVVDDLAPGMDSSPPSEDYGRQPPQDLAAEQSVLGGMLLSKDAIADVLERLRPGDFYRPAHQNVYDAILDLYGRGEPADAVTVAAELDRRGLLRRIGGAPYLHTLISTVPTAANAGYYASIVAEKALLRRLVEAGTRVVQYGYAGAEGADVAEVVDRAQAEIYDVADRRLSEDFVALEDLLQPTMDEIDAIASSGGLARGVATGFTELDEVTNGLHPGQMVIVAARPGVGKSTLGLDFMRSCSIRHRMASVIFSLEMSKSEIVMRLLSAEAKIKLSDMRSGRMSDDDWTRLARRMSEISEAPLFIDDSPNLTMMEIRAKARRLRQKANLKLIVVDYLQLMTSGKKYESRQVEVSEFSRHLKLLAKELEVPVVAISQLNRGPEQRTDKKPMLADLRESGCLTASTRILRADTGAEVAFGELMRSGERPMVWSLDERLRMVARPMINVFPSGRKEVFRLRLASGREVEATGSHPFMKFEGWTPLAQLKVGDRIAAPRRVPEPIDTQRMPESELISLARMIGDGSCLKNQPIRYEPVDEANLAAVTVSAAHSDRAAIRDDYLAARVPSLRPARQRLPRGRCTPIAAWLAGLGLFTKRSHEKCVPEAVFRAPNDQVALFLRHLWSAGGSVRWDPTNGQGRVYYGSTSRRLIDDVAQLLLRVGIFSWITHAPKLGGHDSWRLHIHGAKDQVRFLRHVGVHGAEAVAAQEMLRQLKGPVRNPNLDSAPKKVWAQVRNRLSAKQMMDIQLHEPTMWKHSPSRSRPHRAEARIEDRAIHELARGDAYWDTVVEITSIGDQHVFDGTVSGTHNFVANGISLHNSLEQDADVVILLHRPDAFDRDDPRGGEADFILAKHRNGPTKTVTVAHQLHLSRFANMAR

Protein RecA = target: T6, Protein RecA (Mycobacterium tuberculosis, UniProt P9WHJ3); test: Fluorescence Cell-Free Homogeneous Dose Retest to Identify Inhibitors of RecA-Intein Splicing Activity. [Related pubchem assays (depositor defined):AID2097, AID2223, AID489010, AID492950]; type: functional
T6 sequence (P9WHJ3 whole entry): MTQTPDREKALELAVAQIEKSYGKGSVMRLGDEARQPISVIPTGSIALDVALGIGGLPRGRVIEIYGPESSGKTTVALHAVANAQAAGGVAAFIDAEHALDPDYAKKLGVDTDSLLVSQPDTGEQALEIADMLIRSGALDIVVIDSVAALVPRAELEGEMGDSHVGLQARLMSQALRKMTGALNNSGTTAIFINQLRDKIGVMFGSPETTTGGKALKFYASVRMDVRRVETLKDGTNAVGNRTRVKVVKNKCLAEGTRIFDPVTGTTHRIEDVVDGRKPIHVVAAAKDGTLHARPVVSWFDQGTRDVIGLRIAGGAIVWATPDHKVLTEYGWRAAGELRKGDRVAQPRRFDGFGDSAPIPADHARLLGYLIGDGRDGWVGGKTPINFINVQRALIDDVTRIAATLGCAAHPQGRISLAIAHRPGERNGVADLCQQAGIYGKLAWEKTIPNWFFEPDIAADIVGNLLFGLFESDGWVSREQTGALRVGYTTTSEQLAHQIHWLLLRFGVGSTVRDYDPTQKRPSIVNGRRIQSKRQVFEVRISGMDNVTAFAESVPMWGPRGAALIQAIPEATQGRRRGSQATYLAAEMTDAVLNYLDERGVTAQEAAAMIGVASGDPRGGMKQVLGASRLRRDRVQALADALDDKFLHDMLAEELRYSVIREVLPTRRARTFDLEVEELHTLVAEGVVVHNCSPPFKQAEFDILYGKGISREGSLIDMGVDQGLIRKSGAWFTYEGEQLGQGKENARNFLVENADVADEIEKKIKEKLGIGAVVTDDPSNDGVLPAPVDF

## COC(=O)Cc1c(C)c2ccc(O)c(CN3CCCC(C)C3)c2oc1=O (centres undefined)
Aminopeptidase N
  IC50: 30 µM (active)

## CCC(C)NC(C(=O)Nc1ccc(Cl)c([N+](=O)[O-])c1)c1ccccc1 (centres undefined)
[1]
  EC50: 7.5 µM (active)

## O=C(O)c1ccc(NC(S)=NC(NC(=O)c2ccco2)C(Cl)(Cl)Cl)cc1 (centres undefined)
Aminopeptidase N
  IC50: 60.5 µM (active)

## COc1ccc(-n2nc(C(=O)NCC(=O)NCCCN3CC(C)CC(C)C3)c3ccccc3c2=O)cc1Cl (centres undefined)
[2]
  EC50: 1.5 µM (active)

## O=Cc1cc(N=Nc2ccccc2Cl)ccc1O
[3]
  EC50: > 160 µM (inactive)
[4]
  CC50: 7.07 µM (active)
[5]
  EC50: 5.05 µM (active)
Cells [6]
  EC50: 198 µM (active)
[7]
  EC50: > 38 µM (not active)
Cells [8]
  EC50: > 350 µM (not active)
Streptococcus
  EC50: 6.24 µM (active)
[1]
  EC50: 15 µM (active)

## Cc1ccc(-c2csc(N(CCCN(C)C)C(=O)c3ccco3)n2)cc1
[1]
  EC50: 2.11 µM (active)
[9]
  AC50: 11.7 µM (active)

## Cc1ccc(O)c(Sc2cc(C)ccc2O)c1
[1]
  EC50: 3.76 µM (active)

## C[C@H](NC(=O)c1[nH]cnc1C(=O)Nc1ccc(Cl)cc1)C(=O)OC(C)(C)C
[10]
  CC50: 16.7 µM (active)
Protein skinhead-1
  IC50: > 100 µM (inactive)

## Cc1cc(=O)oc2cc3c(cc12)OCCN3
Aminopeptidase N
  IC50: 32.8 µM (active)

## Brc1ccc(CNc2ccc3ncccc3c2)cc1
[10]
  CC50: > 40 µM (active)
[11]
  AC50: > 380 µM (inactive)
Protein RecA
  EC50: > 380 µM (inactive)

## CC1CC(C)CN(CCCNC(=O)COc2cc(=O)n(C)c3ccccc23)C1 (centres undefined)
[2]
  EC50: 0.749 µM (active)

## O=C(NC1CCN(Cc2ccccc2)CC1)C12CC3CC(CC(C3)C1)C2
[2]
  EC50: 1.5 µM (active)

## Cc1c(O)c(CN2CCCC2)cc2c3c(c(=O)oc12)CCC3
Aminopeptidase N
  IC50: 42.6 µM (active)
